Measured values: ChEMBL document CHEMBL6096703 (J Med Chem, 2025)

Tests used:
[1] = tested on: MDA-MB-436; assay: Antiproliferative activity against human MDA-MB-436 cells assessed as inhibition of cell proliferation at 100 nM incubated for 7 days by CCK-8 assay relative to control; assay type: functional; conditions: MDA-MB-436, 168 h, time 7 day
[2] = molecular target: T1, Poly [ADP-ribose] polymerase 1 (Homo sapiens, UniProt P09874); assay: Inhibition of PARP1 (unknown origin) at 1 nM preincubated with compound for 10 mins followed by DNA and NAD+ addition and measured after 60 mins by chemiluminescence based envision reader analysis relative to control; conditions: time 70.0 min
T1 sequence (P09874 whole entry): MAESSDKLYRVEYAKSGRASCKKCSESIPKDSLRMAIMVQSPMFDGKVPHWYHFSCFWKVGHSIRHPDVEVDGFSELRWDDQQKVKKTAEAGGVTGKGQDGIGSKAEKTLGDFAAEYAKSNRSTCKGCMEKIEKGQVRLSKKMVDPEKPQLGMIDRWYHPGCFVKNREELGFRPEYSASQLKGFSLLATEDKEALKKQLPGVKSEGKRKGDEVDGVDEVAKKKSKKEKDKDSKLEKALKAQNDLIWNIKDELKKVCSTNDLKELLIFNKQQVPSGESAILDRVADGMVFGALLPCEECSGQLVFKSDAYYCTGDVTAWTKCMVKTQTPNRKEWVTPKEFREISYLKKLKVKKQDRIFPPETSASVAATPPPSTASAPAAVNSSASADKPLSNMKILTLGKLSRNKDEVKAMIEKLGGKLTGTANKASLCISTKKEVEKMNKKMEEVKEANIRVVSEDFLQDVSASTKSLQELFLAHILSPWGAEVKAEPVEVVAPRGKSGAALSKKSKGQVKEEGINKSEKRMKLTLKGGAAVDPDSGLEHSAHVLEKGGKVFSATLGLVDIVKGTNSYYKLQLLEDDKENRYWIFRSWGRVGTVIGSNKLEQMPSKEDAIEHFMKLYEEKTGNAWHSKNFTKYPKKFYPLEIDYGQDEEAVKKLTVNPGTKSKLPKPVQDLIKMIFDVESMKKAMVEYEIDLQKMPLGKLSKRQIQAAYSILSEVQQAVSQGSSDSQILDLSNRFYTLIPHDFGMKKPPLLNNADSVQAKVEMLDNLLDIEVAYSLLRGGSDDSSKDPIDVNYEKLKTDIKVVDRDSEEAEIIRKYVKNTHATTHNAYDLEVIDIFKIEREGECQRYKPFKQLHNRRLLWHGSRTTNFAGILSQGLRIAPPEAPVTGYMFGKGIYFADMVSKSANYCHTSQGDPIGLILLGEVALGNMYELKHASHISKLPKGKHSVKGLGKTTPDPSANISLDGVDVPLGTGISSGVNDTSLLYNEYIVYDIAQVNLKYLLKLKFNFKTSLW

[3] = tested on: MDA-MB-436; assay: Antiproliferative activity against human MDA-MB-436 cells assessed as reduction in cell viability incubated for 7 days by CCK-8 assay; assay type: functional, cell-based; conditions: MDA-MB-436, 168 h
[4] = molecular target: T1, Poly [ADP-ribose] polymerase 1; assay: Inhibition of PARP1 (unknown origin) preincubated with compound for 10 mins followed by DNA and NAD+ addition and measured after 60 mins by chemiluminescence based envision reader analysis
[5] = molecular target: T2, Poly [ADP-ribose] polymerase 2 (Homo sapiens, UniProt Q9UGN5); assay: Inhibition of PARP2 (unknown origin) preincubated with compound for 10 mins followed by DNA and NAD+ addition and measured after 60 mins by chemiluminescence based envision reader analysis
T2 sequence (Q9UGN5 whole entry): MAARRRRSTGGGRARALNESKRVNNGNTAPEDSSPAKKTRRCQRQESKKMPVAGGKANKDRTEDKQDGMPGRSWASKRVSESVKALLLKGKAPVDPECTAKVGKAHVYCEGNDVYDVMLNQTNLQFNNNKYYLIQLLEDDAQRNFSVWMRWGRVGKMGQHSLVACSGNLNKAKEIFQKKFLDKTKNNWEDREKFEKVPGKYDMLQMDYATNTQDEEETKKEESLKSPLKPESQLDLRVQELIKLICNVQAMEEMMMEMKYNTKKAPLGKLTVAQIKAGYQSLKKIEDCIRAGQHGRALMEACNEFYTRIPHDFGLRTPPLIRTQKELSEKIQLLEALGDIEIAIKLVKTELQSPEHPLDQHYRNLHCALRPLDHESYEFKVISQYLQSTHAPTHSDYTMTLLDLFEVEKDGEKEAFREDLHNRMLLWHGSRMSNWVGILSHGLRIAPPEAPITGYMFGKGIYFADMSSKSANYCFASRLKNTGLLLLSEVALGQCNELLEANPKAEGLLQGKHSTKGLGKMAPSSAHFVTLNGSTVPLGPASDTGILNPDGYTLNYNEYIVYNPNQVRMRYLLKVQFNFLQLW

[6] = molecular target: T2, Poly [ADP-ribose] polymerase 2; assay: Inhibition of PARP2 (unknown origin) at 1 uM preincubated with compound for 10 mins followed by DNA and NAD+ addition and measured after 60 mins by chemiluminescence based envision reader analysis relative to control; conditions: time 70.0 min
[7] = Clearance in male Balb/c mouse at 1 mg/kg, po measured upto 96 hrs by LC-MS/MS analysis; assay type: ADME, organism-based; conditions: male, Balb/c, in vivo
[8] = Cmax in male Balb/c mouse at 1 mg/kg, po measured upto 96 hrs by LC-MS/MS analysis; assay type: ADME, organism-based; conditions: in vivo
[9] = Half life in male Balb/c mouse at 1 mg/kg, po measured upto 96 hrs by LC-MS/MS analysis; assay type: ADME, organism-based; conditions: male, Balb/c, in vivo
[10] = AUC(0 to t) in male Balb/c mouse at 1 mg/kg, po measured upto 96 hrs by LC-MS/MS analysis; assay type: ADME, organism-based; conditions: male, Balb/c, in vivo

SMILES	inhibition at 0.1 µM [1] [%]	inhibition [2] [%]	IC50 [3] [nM]	also measured
CCc1cc2ncc(CN3CC=C(c4ncccc4C(=O)NC)CC3)cc2[nH]c1=O	26.7	15	–	–
CCc1cc2ncc(CN3CC=C(c4ccc(C#N)cc4F)CC3)cc2[nH]c1=O	–	96.9	5.3	IC50 [4]: 0.17 nM; IC50 [5]: 62 nM; inhibition [6]: 92.3%
CCc1cc2ncc(CN3CC=C(c4c(F)cc(C#N)cc4F)CC3)cc2[nH]c1=O	16.3	10.5	–	–
CCc1cc2ncc(CN3CC=C(c4ccccc4C#N)CC3)cc2[nH]c1=O	44.8	51.6	–	–
CCc1cc2ncc(CN3CC=C(c4cc(F)c(C)c(F)c4)CC3)cc2[nH]c1=O	22.2	27.5	–	–
CCc1cc2ncc(CN3CC=C(c4ccncc4C#N)CC3)cc2[nH]c1=O	9.8	13.7	–	–
CCc1cc2ncc(CN3CC=C(c4cccnc4N)CC3)cc2[nH]c1=O	14.4	56.5	–	–
CCc1cc2ncc(CN3CC=C(c4ncc(C#N)cc4C)CC3)cc2[nH]c1=O	-10.9	15.9	–	–
CCc1cc2ncc(CN3CC=C(c4ccc(C)c(F)c4)CC3)cc2[nH]c1=O	28.2	54.4	–	–
CCc1cc2ncc(CN3CC=C(c4cnc5ccnn5c4)CC3)cc2[nH]c1=O	13.6	46.3	–	–
CCc1cc2ncc(CN3CC=C(c4ccc(OC)nc4C)CC3)cc2[nH]c1=O	24	40.9	–	–
CCc1cc2ncc(CN3CCN(c4ccc([N+](=O)[O-])cc4F)CC3)cc2[nH]c1=O	–	–	1.8	–
CCc1cc2ncc(CN3CC=C(c4cc(F)c(C#N)cn4)CC3)cc2[nH]c1=O	–	88.6	2.8	CL/F [7]: 1 mL/min/kg; Cmax [8]: 3020 ng/mL; IC50 [4]: 0.28 nM; half-life [9]: 5.26 h; IC50 [5]: 130 nM; inhibition [6]: 87.4%; AUC(0-t) at 96 h [10]: 16400 ng·h/mL
CNC(=O)c1ccc(N2CCN(Cc3cnc4cc(C5CC5)c(=O)[nH]c4c3)CC2)c(F)n1	–	–	4.1	–
CNC(=O)c1ccc(N2CCN(Cc3cnc4cc(C)c(=O)[nH]c4c3)CC2)c(F)n1	–	75	114	IC50 [4]: 0.32 nM; IC50 [5]: 19 nM; inhibition [6]: 98.3%
CCc1cc2ncc(CN3CCN(c4cc(F)c(C#N)cn4)CC3)cc2[nH]c1=O	–	–	1.9	CL/F [7]: 1 mL/min/kg; Cmax [8]: 2250 ng/mL; half-life [9]: 6.3 h; AUC(0-t) at 96 h [10]: 16000 ng·h/mL
CCc1cc2ncc(CN3CCN(c4ccc(C(=O)NC)nc4F)CC3)c(F)c2[nH]c1=O	–	–	43.1	–
CCc1cc2ncc(CN3CC=C(c4ccc(C#N)s4)CC3)cc2[nH]c1=O	45	46.2	–	–
CCc1cc2ncc(CN3CC=C(c4ccc(C#N)cc4)CC3)cc2[nH]c1=O	37.9	75.6	–	inhibition [6]: 91.7%
CCc1cc2ncc(CN3CC=C(c4ccc([N+](=O)[O-])cc4F)CC3)cc2[nH]c1=O	–	72.1	25.7	IC50 [4]: 0.47 nM; IC50 [5]: 37 nM; inhibition [6]: 98.1%

SMILES	inhibition at 0.1 µM [1] [%]	inhibition [2] [%]	IC50 [3] [nM]	also measured
CCc1nc2ccc(CN3CCN(c4ccc(C(=O)NC)nc4F)CC3)c(F)c2[nH]c1=O	–	–	87.1	–
CCc1cc2ncc(CN3CC=C(c4ccc(C#N)c(F)c4F)CC3)cc2[nH]c1=O	45.1	54.7	–	–
CCc1cc2ncc(CN3CC=C(c4ccc(N)nc4)CC3)cc2[nH]c1=O	31.1	10	–	–
CCc1cc2ncc(CN3CC=C(c4cc(C)c(F)c(C)c4)CC3)cc2[nH]c1=O	23.6	-3.8	–	–
CCc1cc2ncc(CN3CC=C(c4cnc(C(=O)NC)nc4)CC3)cc2[nH]c1=O	52.6	47.1	29.1	–
CCc1cc2ncc(CN3CCN(c4ccc(C(=O)NC)nc4F)CC3)cc2[nH]c1=O	–	95.2	2.8	IC50 [4]: 0.65 nM; IC50 [5]: 88 nM; inhibition [6]: 93.8%
CCc1cc2ncc(CN3CCN(c4ccc(C#N)cc4F)CC3)cc2[nH]c1=O	–	–	4.1	–
CCc1cc2ncc(CN3CC=C(c4ccc(C)cc4F)CC3)cc2[nH]c1=O	5	61.7	–	inhibition [6]: 75.4%
CCc1cc2ncc(CN3CC=C(c4cnc(C#N)cn4)CC3)cc2[nH]c1=O	47.5	45.8	–	–
CCc1cc2ncc(CN3CC=C(c4ncccc4C#N)CC3)cc2[nH]c1=O	5.9	-9.3	–	–
CCc1cc2ncc(CN3CC=C(c4ncc(C(=O)NC)nc4C)CC3)cc2[nH]c1=O	41.1	77.2	–	inhibition [6]: 85.4%
CCc1cc2ncc(CN3CC=C(c4ccc(C(=O)NC)nc4N)CC3)cc2[nH]c1=O	19.5	27.2	–	–
CCc1cc2ncc(CN3CC=C(c4ccc(F)cn4)CC3)cc2[nH]c1=O	–	91.4	6.5	IC50 [4]: 0.28 nM; IC50 [5]: 65 nM; inhibition [6]: 93.9%
CCc1cc2ncc(CN3CC=C(c4ccc(C(=O)NC)nc4OC)CC3)cc2[nH]c1=O	31.3	38.8	–	–
CCc1cc2ncc(CN3CC=C(c4cnc(F)c(F)c4)CC3)cc2[nH]c1=O	37.7	72.3	–	inhibition [6]: 77.3%
CCc1cc2ncc(CN3CC=C(c4cc(F)c(C#N)c(F)c4)CC3)cc2[nH]c1=O	51.9	31.3	16.3	–
CCc1cc2ncc(CN3CC=C(c4ccc(C(F)(F)F)nc4)CC3)cc2[nH]c1=O	-4.1	56.9	–	inhibition [6]: 82.3%
CCc1cc2ncc(CN3CC=C(c4ccc(F)c(C)c4)CC3)cc2[nH]c1=O	30.2	46.6	–	–
CCc1cc2ncc(CN3CC=C(c4cnccc4C(=O)NC)CC3)cc2[nH]c1=O	18.5	7.4	–	–
CCc1cc2ncc(CN3CC=C(c4ccc(C(=O)NC)c(F)c4F)CC3)cc2[nH]c1=O	16.1	46.1	–	–
